The results in this text go back to patent US20110086759A1, “CHEMICAL COMPOUNDS” (SYNGENTA CROP PROTECTION, INC., priority 2007, published 2011).

The structures appear in SMILES notation.

Common to all, as to format: in vivo
In assay [1] the test system is Echinochloa crus-galli (ECHCG). Kind of assay: Pre-emergence biological efficacy, glasshouse pot test. The conditions noted are these: 312 h. The gist of the method: (§1)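 Damage rated 0–100 (100 = total kill) 13 days post-spray. Pots of standard soil were sown and sprayed after one day with test compound at 1000 or 250 g/ha in acetone/water (50:50) plus 0.5% Tween 20.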

The subject of assay [2] is Amaranthus retoflexus (AMARE). The assay is described as above. The conditions noted are these: Amaranthus retroflexus, 312 h. The gist of the method:
as §1

Assay [3] concerns Solanum nigrum (SOLNI). Described as above. The conditions noted are these: 312 h. The gist of the method: as §1
For assay [4], the system named is Setaria faberi (SETFA). The description is as above. The settings on record: 312 h. The gist of the method: as §1
The subject of assay [5] is Alopecurus myosuroides (ALOMY). The description is as above. The conditions noted are these: 312 h. The gist of the method:
as §1

Assay [6] deals with Ipomea hederaceae (IPOHE). The description is as above. The conditions noted are these: Ipomoea hederacea, 312 h. The gist of the method:
as §1

Assay [7] deals with Echinochloa crus-galli (ECHCG). Kind of assay: Post-emergence biological efficacy, glasshouse pot test. The settings on record: 312 h. The gist of the method:
(§2)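 Pot-grown weeds were sprayed 8 days after sowing with test compound in acetone/water (50:50) with 0.5% Tween 20 at 1000 or 250 g/ha. Glasshouse at 24/16° C day/night, 14 h light, 65% humidity. Damage scored 0-100 (100 = total damage) after 13 days.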

The subject of assay [8] is Amaranthus retoflexus (AMARE). The assay is described as above. The settings on record: Amaranthus retroflexus, 312 h. The gist of the method:
as §2

Assay [9] has as its system Solanum nigrum (SOLNI). The assay is described as above. The conditions noted are these: 312 h. The gist of the method: as §2
The subject of assay [10] is Setaria faberi (SETFA). The description is as above. The settings on record: 312 h. The gist of the method: as §2
For assay [11], the system named is Alopecurus myosuroides (ALOMY). The description is as above. The settings on record: 312 h. The gist of the method:
as §2

Assay [12] concerns Ipomea hederaceae (IPOHE). The description is as above. The conditions noted are these: Ipomoea hederacea, 312 h. The gist of the method:
as §2

Where [13] appears, read: pre-emergence, 1,000 g/ha, evaluated after 13 days (100=total damage; 0=no damage), read-out: Percentage damage ECHCG.
[14] abbreviates: pre-emergence, 1,000 g/ha, evaluated after 13 days (100=total damage; 0=no damage), read-out: Percentage damage AMARE.
Where [15] appears, read: pre-emergence, 1,000 g/ha, evaluated after 13 days (100=total damage; 0=no damage), read-out: Percentage damage SOLNI.
Setting [16] is: pre-emergence, 1,000 g/ha, evaluated after 13 days (100=total damage; 0=no damage), read-out: Percentage damage SETFA.
[17] abbreviates: pre-emergence, 1,000 g/ha, evaluated after 13 days (100=total damage; 0=no damage), read-out: Percentage damage ALOMY.
[18] abbreviates: pre-emergence, 1,000 g/ha, evaluated after 13 days (100=total damage; 0=no damage), read-out: Percentage damage IPOHE.
[19] abbreviates: post-emergence, 1,000 g/ha, evaluated after 13 days (100=total damage; 0=no damage), read-out: Percentage damage caused to weed species, ECHCG.
[20] abbreviates: post-emergence, 1,000 g/ha, evaluated after 13 days (100=total damage; 0=no damage), read-out: Percentage damage caused to weed species, AMARE.
The mark [21] stands for this setting: post-emergence, 1,000 g/ha, evaluated after 13 days (100=total damage; 0=no damage), read-out: Percentage damage caused to weed species, SOLNI.
[22] abbreviates: post-emergence, 1,000 g/ha, evaluated after 13 days (100=total damage; 0=no damage), read-out: Percentage damage caused to weed species, SETFA.
[23] abbreviates: post-emergence, 1,000 g/ha, evaluated after 13 days (100=total damage; 0=no damage), read-out: Percentage damage caused to weed species, ALOMY.
Where [24] appears, read: post-emergence, 1,000 g/ha, evaluated after 13 days (100=total damage; 0=no damage), read-out: Percentage damage caused to weed species, IPOHE.

Regarding `COC(=O)c1nc(-c2ccc(Cl)cc2F)nc(NCc2ccco2)c1Cl` [Compound 218-48, 5-Chloro-2-(4-chloro-2-fluorophenyl)-4-(furan-2-yl-methyl-amino)-6-methoxy-carbonylpyrimidine], the pest or weed control at 1000 g/ha in [1] (pre-emergence, rate 1,000 g/ha, evaluated after 13 days (100=total damage to plant; 0=no damage), read-out: Percentage damage caused to weed species, ECHCG) was 50%; in assay [2] (pre-emergence, rate 1,000 g/ha, evaluated after 13 days (100=total damage to plant; 0=no damage), read-out: Percentage damage caused to weed species, AMARE) it was 100%; in the assay on Solanum nigrum (SOLNI) [3] (pre-emergence, rate 1,000 g/ha, evaluated after 13 days (100=total damage to plant; 0=no damage), read-out: Percentage damage caused to weed species, SOLNI), 90%; with Setaria faberi (SETFA) [4] (pre-emergence, rate 1,000 g/ha, evaluated after 13 days (100=total damage to plant; 0=no damage), read-out: Percentage damage caused to weed species, SETFA), 70%; in assay [5] (pre-emergence, rate 1,000 g/ha, evaluated after 13 days (100=total damage to plant; 0=no damage), read-out: Percentage damage caused to weed species, ALOMY), 70%; in [6] (pre-emergence, rate 1,000 g/ha, evaluated after 13 days (100=total damage to plant; 0=no damage), read-out: Percentage damage caused to weed species, IPOHE), 50%. Besides, the pest or weed control at 1000 g/ha in assay [7] (Rate 1,000 g/ha, post-emergence spray, evaluated after 13 days (100=total damage to plant; 0=no damage to plant), read-out: Percentage damage caused to weed species, post-emergence, ECHCG) came to 60%; in assay [8] (Rate 1,000 g/ha, post-emergence spray, evaluated after 13 days (100=total damage to plant; 0=no damage to plant), read-out: Percentage damage caused to weed species, post-emergence, AMARE) it was 100%; in the assay with Solanum nigrum (SOLNI) [9] (Rate 1,000 g/ha, post-emergence spray, evaluated after 13 days (100=total damage to plant; 0=no damage to plant), read-out: Percentage damage caused to weed species, post-emergence, SOLNI) it was 90%; with Setaria faberi (SETFA) [10] (Rate 1,000 g/ha, post-emergence spray, evaluated after 13 days (100=total damage to plant; 0=no damage to plant), read-out: Percentage damage caused to weed species, post-emergence, SETFA), 80%; in [11] (Rate 1,000 g/ha, post-emergence spray, evaluated after 13 days (100=total damage to plant; 0=no damage to plant), read-out: Percentage damage caused to weed species, post-emergence, ALOMY) it was 60%; in [12] (Rate 1,000 g/ha, post-emergence spray, evaluated after 13 days (100=total damage to plant; 0=no damage to plant), read-out: Percentage damage caused to weed species, post-emergence, IPOHE), 90%.

As to `COC(=O)c1nc(C2CC2)nc(NC(c2ccccc2)c2ccccc2)c1Cl` [Compound 4-277, 5-Chloro-2-cyclopropyl-4-(diphenylmethyl-amino)-6-methoxy-carbonylpyrimidine], the pest or weed control at 1000 g/ha in assay [1] (setting [13]) amounted to 0%; in [2] (setting [14]), 0%; in the assay on Solanum nigrum (SOLNI) [3] (setting [15]) it was 0%; with Setaria faberi (SETFA) [4] (setting [16]) it was 0%; in assay [5] (setting [17]) it was 0%; in assay [6] (setting [18]), 40%. For the same compound, the pest or weed control at 1000 g/ha was determined as 50% in [7] (setting [19]); 90% in [8] (setting [20]); 50% with Solanum nigrum (SOLNI) [9] (setting [21]); 50% with Setaria faberi (SETFA) [10] (setting [22]); 30% in assay [11] (setting [23]); 70% in assay [12] (setting [24]).

For `COC(=O)c1nc(C2CC2)nc(NCC(C)(F)c2cccc(C(F)(F)F)c2)c1Cl` (stereo not drawn) [Compound 4-242, 5-Chloro-2-cyclopropyl-4-[2-fluoro-2-(3-trifluoromethyl-phenyl)propyl-amino]-6-methoxy-carbonylpyrimidine], the pest or weed control at 1000 g/ha in [1] (setting [13]) is 0%; in [2] (setting [14]), 10%; in the assay with Solanum nigrum (SOLNI) [3] (setting [15]), 0%; in the assay with Setaria faberi (SETFA) [4] (setting [16]), 0%; in assay [5] (setting [17]), 0%; in [6] (setting [18]), 10%. The pest or weed control at 1000 g/ha worked out at 0% in assay [7] (setting [19]); 90% in assay [8] (setting [20]); 60% in the assay with Solanum nigrum (SOLNI) [9] (setting [21]); 10% with Setaria faberi (SETFA) [10] (setting [22]); 0% in assay [11] (setting [23]); 50% in assay [12] (setting [24]).

With `COC(=O)c1nc(C2CC2)nc(NCc2ccc(C(F)(F)F)nc2)c1Cl` [Compound 4-159, 5-Chloro-2-cyclopropyl-6-methoxycarbonyl-4-(2-trifluoromethyl-pyrid-5-yl-methyl-amino)-pyrimidine], the pest or weed control at 1000 g/ha is 30% in assay [1] (setting [13]); 0% in assay [2] (setting [14]); 20% in the assay on Solanum nigrum (SOLNI) [3] (setting [15]); 0% with Setaria faberi (SETFA) [4] (setting [16]); 10% in assay [5] (setting [17]); 70% in assay [6] (setting [18]). Also, the pest or weed control at 1000 g/ha in [7] (setting [19]) was found to be 80%; in [8] (setting [20]), 90%; in the assay with Solanum nigrum (SOLNI) [9] (setting [21]), 80%; with Setaria faberi (SETFA) [10] (setting [22]) it was 70%; in [11] (setting [23]), 30%; in assay [12] (setting [24]), 80%.

As for `COC(=O)c1nc(C2CC2)nc(NC2(c3cccc(C)n3)CC2)c1Cl` [Compound 4-13, 5-Chloro-2-cyclopropyl-6-methoxycarbonyl-4-[1-(6-methylpyrid-2-yl)-cyclopropyl-amino]-pyrimidine], the pest or weed control at 1000 g/ha in assay [1] (setting [13]) amounted to 0%; in [2] (setting [14]) it was 20%; with Solanum nigrum (SOLNI) [3] (setting [15]), 20%; with Setaria faberi (SETFA) [4] (setting [16]), 0%; in assay [5] (setting [17]), 0%; in assay [6] (setting [18]), 50%. Also, the pest or weed control at 1000 g/ha is 0% in assay [7] (setting [19]); 60% in assay [8] (setting [20]); 50% in the assay on Solanum nigrum (SOLNI) [9] (setting [21]); 0% in the assay with Setaria faberi (SETFA) [10] (setting [22]); 20% in [11] (setting [23]); 60% in [12] (setting [24]).

Regarding `COC(=O)c1nc(C2CC2)nc(NCC2CCC(C#N)CC2)c1Cl` (stereo not drawn) [Compound 4-51, 5-Chloro-4-[(4-cyanocyclohexyl)methylamino]-2-cyclopropyl-6-methoxycarbonyl-pyrimidine], the pest or weed control at 1000 g/ha in [1] (setting [13]) was found to be 0%; in [2] (setting [14]) it was 30%; in the assay on Solanum nigrum (SOLNI) [3] (setting [15]), 10%; in the assay on Setaria faberi (SETFA) [4] (setting [16]), 0%; in [5] (setting [17]) it was 0%; in [6] (setting [18]) it was 50%. Further, the pest or weed control at 1000 g/ha in [7] (setting [19]) was 20%; in [8] (setting [20]) it was 50%; in the assay with Solanum nigrum (SOLNI) [9] (setting [21]), 50%; in the assay with Setaria faberi (SETFA) [10] (setting [22]), 50%; in [11] (setting [23]), 10%; in [12] (setting [24]), 60%.

Regarding `COC(=O)c1nc(C2CC2)nc(N[C@@H](C)C2CCCCC2)c1Cl` [4-173 (S), 5-Chloro-4-[(1S)-1-(cyclohexyl)ethyl-amino]-2-cyclopropyl-6-methoxycarbonyl-pyrimidine], the pest or weed control at 1000 g/ha in assay [1] (setting [13]) came to 0%; in assay [2] (setting [14]), 20%; with Solanum nigrum (SOLNI) [3] (setting [15]), 0%; with Setaria faberi (SETFA) [4] (setting [16]) it was 0%; in assay [5] (setting [17]) it was 0%; in [6] (setting [18]) it was 0%. In addition, the pest or weed control at 1000 g/ha worked out at 0% in assay [7] (setting [19]); 20% in [8] (setting [20]); 20% with Solanum nigrum (SOLNI) [9] (setting [21]); 0% in the assay on Setaria faberi (SETFA) [10] (setting [22]); 0% in assay [11] (setting [23]); 40% in [12] (setting [24]).
